Details: bacteroides eggerthii, 12 h, 2 µM
Description: The drug is tested on Bacteroides eggerthii strain: DSM20697 for biotransformation. The drug concentrations were measured before and after a 12-h incubation by liquid-chromatography-coupled mass spectrometry (LC–MS)

| Compound | Bacterial Biotransformation |
| --- | --- |
| CCN(CC)CCNC(C(=O)OCCC(C)C)c1ccccc1.Cl.Cl (configuration not stated) | Compound NOT metabolized |
| CN(C)CCc1c[nH]c2ccc(Cn3cncn3)cc12.O=C(O)c1ccccc1 [RIZATRIPTAN BENZOATE] | Compound NOT metabolized |
| CCN1CCCC1CNC(=O)c1cc(S(N)(=O)=O)ccc1OC (configuration not stated) [SULPIRIDE] | Compound NOT metabolized |
| CN(CCOc1ccc(CC2SC(=O)NC2=O)cc1)c1ccccn1.O=C(O)/C=C\C(=O)O (configuration not stated) [ROSIGLITAZONE MALEATE] | Compound NOT metabolized |

Test: The drug is tested on Providencia stuartii strain: ATCC25827 for biotransformation. The drug concentrations were measured before and after a 12-h incubation by liquid-chromatography-coupled mass spectrometry (LC–MS)
Details: 2 µM

| Compound | Bacterial Biotransformation |
| --- | --- |
| CCN(CC)CCNC(C(=O)OCCC(C)C)c1ccccc1.Cl.Cl (configuration not stated) | Compound NOT metabolized |
| CN(C)CCc1c[nH]c2ccc(Cn3cncn3)cc12.O=C(O)c1ccccc1 [RIZATRIPTAN BENZOATE] | Compound NOT metabolized |
| CCN1CCCC1CNC(=O)c1cc(S(N)(=O)=O)ccc1OC (configuration not stated) [SULPIRIDE] | Compound NOT metabolized |
| CN(CCOc1ccc(CC2SC(=O)NC2=O)cc1)c1ccccn1.O=C(O)/C=C\C(=O)O (configuration not stated) [ROSIGLITAZONE MALEATE] | Compound NOT metabolized |

Test: The drug is tested on Edwardsiella tarda strain: ATCC23685 for biotransformation. The drug concentrations were measured before and after a 12-h incubation by liquid-chromatography-coupled mass spectrometry (LC–MS)
Details: 2 µM

| Compound | Bacterial Biotransformation |
| --- | --- |
| CCN(CC)CCNC(C(=O)OCCC(C)C)c1ccccc1.Cl.Cl (configuration not stated) | Compound NOT metabolized |
| CN(C)CCc1c[nH]c2ccc(Cn3cncn3)cc12.O=C(O)c1ccccc1 [RIZATRIPTAN BENZOATE] | Compound NOT metabolized |
| CCN1CCCC1CNC(=O)c1cc(S(N)(=O)=O)ccc1OC (configuration not stated) [SULPIRIDE] | Compound NOT metabolized |
| CN(CCOc1ccc(CC2SC(=O)NC2=O)cc1)c1ccccn1.O=C(O)/C=C\C(=O)O (configuration not stated) [ROSIGLITAZONE MALEATE] | Compound NOT metabolized |

Test: The drug is tested on Bacteroides dorei strain: DSM17855 for biotransformation. The drug concentrations were measured before and after a 12-h incubation by liquid-chromatography-coupled mass spectrometry (LC–MS)
Details: phocaeicola dorei, 2 µM

| Compound | Bacterial Biotransformation |
| --- | --- |
| CN(C)CCc1c[nH]c2ccc(Cn3cncn3)cc12.O=C(O)c1ccccc1 [RIZATRIPTAN BENZOATE] | Compound NOT metabolized |
| CCN1CCCC1CNC(=O)c1cc(S(N)(=O)=O)ccc1OC (configuration not stated) [SULPIRIDE] | Compound NOT metabolized |
| CN(CCOc1ccc(CC2SC(=O)NC2=O)cc1)c1ccccn1.O=C(O)/C=C\C(=O)O (configuration not stated) [ROSIGLITAZONE MALEATE] | Compound NOT metabolized |

Test: The drug is tested on Collinsella intestinalis strain: DSM13280 for biotransformation. The drug concentrations were measured before and after a 12-h incubation by liquid-chromatography-coupled mass spectrometry (LC–MS)
Details: 2 µM

| Compound | Bacterial Biotransformation |
| --- | --- |
| CCN(CC)CCNC(C(=O)OCCC(C)C)c1ccccc1.Cl.Cl (configuration not stated) | Compound NOT metabolized |
| CN(C)CCc1c[nH]c2ccc(Cn3cncn3)cc12.O=C(O)c1ccccc1 [RIZATRIPTAN BENZOATE] | Compound NOT metabolized |
| CCN1CCCC1CNC(=O)c1cc(S(N)(=O)=O)ccc1OC (configuration not stated) [SULPIRIDE] | Compound NOT metabolized |
| CN(CCOc1ccc(CC2SC(=O)NC2=O)cc1)c1ccccn1.O=C(O)/C=C\C(=O)O (configuration not stated) [ROSIGLITAZONE MALEATE] | Compound NOT metabolized |

Test: The drug is tested on Collinsella aerofaciens strain: ATCC25986 for biotransformation. The drug concentrations were measured before and after a 12-h incubation by liquid-chromatography-coupled mass spectrometry (LC–MS)
Details: 2 µM

| Compound | Bacterial Biotransformation |
| --- | --- |
| CCN(CC)CCNC(C(=O)OCCC(C)C)c1ccccc1.Cl.Cl (configuration not stated) | Compound NOT metabolized |
| CN(C)CCc1c[nH]c2ccc(Cn3cncn3)cc12.O=C(O)c1ccccc1 [RIZATRIPTAN BENZOATE] | Compound NOT metabolized |
| CCN1CCCC1CNC(=O)c1cc(S(N)(=O)=O)ccc1OC (configuration not stated) [SULPIRIDE] | Compound NOT metabolized |
| CN(CCOc1ccc(CC2SC(=O)NC2=O)cc1)c1ccccn1.O=C(O)/C=C\C(=O)O (configuration not stated) [ROSIGLITAZONE MALEATE] | Compound NOT metabolized |

Details: enterocloster bolteae, 12 h, 2 µM
Description: The drug is tested on Clostridium bolteae strain: ATCCBAA-613 for biotransformation. The drug concentrations were measured before and after a 12-h incubation by liquid-chromatography-coupled mass spectrometry (LC–MS)

| Compound | Bacterial Biotransformation |
| --- | --- |
| CCN(CC)CCNC(C(=O)OCCC(C)C)c1ccccc1.Cl.Cl (configuration not stated) | Compound NOT metabolized |
| CN(C)CCc1c[nH]c2ccc(Cn3cncn3)cc12.O=C(O)c1ccccc1 [RIZATRIPTAN BENZOATE] | Compound NOT metabolized |
| CCN1CCCC1CNC(=O)c1cc(S(N)(=O)=O)ccc1OC (configuration not stated) [SULPIRIDE] | Compound NOT metabolized |
| CN(CCOc1ccc(CC2SC(=O)NC2=O)cc1)c1ccccn1.O=C(O)/C=C\C(=O)O (configuration not stated) [ROSIGLITAZONE MALEATE] | Compound NOT metabolized |

Test: The drug is tested on Bifidobacterium longum subsp. Infantis strain: CCUG52486 for biotransformation. The drug concentrations were measured before and after a 12-h incubation by liquid-chromatography-coupled mass spectrometry (LC–MS)
Details: 2 µM

| Compound | Bacterial Biotransformation |
| --- | --- |
| CCN(CC)CCNC(C(=O)OCCC(C)C)c1ccccc1.Cl.Cl (configuration not stated) | Compound NOT metabolized |
| CCN1CCCC1CNC(=O)c1cc(S(N)(=O)=O)ccc1OC (configuration not stated) [SULPIRIDE] | Compound NOT metabolized |
| CN(CCOc1ccc(CC2SC(=O)NC2=O)cc1)c1ccccn1.O=C(O)/C=C\C(=O)O (configuration not stated) [ROSIGLITAZONE MALEATE] | Compound NOT metabolized |

Test: The drug is tested on Ruminococcus gnavus strain: ATCC29149 for biotransformation. The drug concentrations were measured before and after a 12-h incubation by liquid-chromatography-coupled mass spectrometry (LC–MS)
Details: mediterraneibacter gnavus, 2 µM

| Compound | Bacterial Biotransformation |
| --- | --- |
| CCN(CC)CCNC(C(=O)OCCC(C)C)c1ccccc1.Cl.Cl (configuration not stated) | Compound NOT metabolized |
| CCN1CCCC1CNC(=O)c1cc(S(N)(=O)=O)ccc1OC (configuration not stated) [SULPIRIDE] | Compound NOT metabolized |
| CN(CCOc1ccc(CC2SC(=O)NC2=O)cc1)c1ccccn1.O=C(O)/C=C\C(=O)O (configuration not stated) [ROSIGLITAZONE MALEATE] | Compound NOT metabolized |

Details: bacteroides intestinalis, 12 h, 2 µM
Description: The drug is tested on Bacteroides intestinalis strain: DSM17393 for biotransformation. The drug concentrations were measured before and after a 12-h incubation by liquid-chromatography-coupled mass spectrometry (LC–MS)

| Compound | Bacterial Biotransformation |
| --- | --- |
| CCN(CC)CCNC(C(=O)OCCC(C)C)c1ccccc1.Cl.Cl (configuration not stated) | Compound NOT metabolized |
| CCN1CCCC1CNC(=O)c1cc(S(N)(=O)=O)ccc1OC (configuration not stated) [SULPIRIDE] | Compound NOT metabolized |
| CN(CCOc1ccc(CC2SC(=O)NC2=O)cc1)c1ccccn1.O=C(O)/C=C\C(=O)O (configuration not stated) [ROSIGLITAZONE MALEATE] | Compound NOT metabolized |

Details: limosilactobacillus reuteri cf48-3a, 12 h, 2 µM
Description: The drug is tested on Lactobacillus reuteri CF48-3A strain: BEI HM-102 for biotransformation. The drug concentrations were measured before and after a 12-h incubation by liquid-chromatography-coupled mass spectrometry (LC–MS)

| Compound | Bacterial Biotransformation |
| --- | --- |
| CCN(CC)CCNC(C(=O)OCCC(C)C)c1ccccc1.Cl.Cl (configuration not stated) | Compound NOT metabolized |
| CCN1CCCC1CNC(=O)c1cc(S(N)(=O)=O)ccc1OC (configuration not stated) [SULPIRIDE] | Compound NOT metabolized |
| CN(CCOc1ccc(CC2SC(=O)NC2=O)cc1)c1ccccn1.O=C(O)/C=C\C(=O)O (configuration not stated) [ROSIGLITAZONE MALEATE] | Compound NOT metabolized |

Test: The drug is tested on Anaerococcus hydrogenalis strain: DSM7454 for biotransformation. The drug concentrations were measured before and after a 12-h incubation by liquid-chromatography-coupled mass spectrometry (LC–MS)
Details: 2 µM

| Compound | Bacterial Biotransformation |
| --- | --- |
| CCN(CC)CCNC(C(=O)OCCC(C)C)c1ccccc1.Cl.Cl (configuration not stated) | Compound NOT metabolized |
| CN(C)CCc1c[nH]c2ccc(Cn3cncn3)cc12.O=C(O)c1ccccc1 [RIZATRIPTAN BENZOATE] | Compound NOT metabolized |
| CCN1CCCC1CNC(=O)c1cc(S(N)(=O)=O)ccc1OC (configuration not stated) [SULPIRIDE] | Compound NOT metabolized |
| CN(CCOc1ccc(CC2SC(=O)NC2=O)cc1)c1ccccn1.O=C(O)/C=C\C(=O)O (configuration not stated) [ROSIGLITAZONE MALEATE] | Compound NOT metabolized |

Test: The drug is tested on Bacteroides fragilis strain: HMW610 for biotransformation. The drug concentrations were measured before and after a 12-h incubation by liquid-chromatography-coupled mass spectrometry (LC–MS)
Details: 2 µM

| Compound | Bacterial Biotransformation |
| --- | --- |
| CCN(CC)CCNC(C(=O)OCCC(C)C)c1ccccc1.Cl.Cl (configuration not stated) | Compound NOT metabolized |
| CN(C)CCc1c[nH]c2ccc(Cn3cncn3)cc12.O=C(O)c1ccccc1 [RIZATRIPTAN BENZOATE] | Compound NOT metabolized |
| CCN1CCCC1CNC(=O)c1cc(S(N)(=O)=O)ccc1OC (configuration not stated) [SULPIRIDE] | Compound metabolized |

Details: bacteroides thetaiotaomicron, 12 h, 2 µM
Description: The drug is tested on Bacteroides thetaiotaomicron strain: 7330 for biotransformation. The drug concentrations were measured before and after a 12-h incubation by liquid-chromatography-coupled mass spectrometry (LC–MS)

| Compound | Bacterial Biotransformation |
| --- | --- |
| CN(CCOc1ccc(CC2SC(=O)NC2=O)cc1)c1ccccn1.O=C(O)/C=C\C(=O)O (configuration not stated) [ROSIGLITAZONE MALEATE] | Compound NOT metabolized |

Test: The drug is tested on Bacteroides pectinophilus strain: ATCC43243 for biotransformation. The drug concentrations were measured before and after a 12-h incubation by liquid-chromatography-coupled mass spectrometry (LC–MS)
Details: 2 µM

| Compound | Bacterial Biotransformation |
| --- | --- |
| CCN(CC)CCNC(C(=O)OCCC(C)C)c1ccccc1.Cl.Cl (configuration not stated) | Compound NOT metabolized |
| CN(C)CCc1c[nH]c2ccc(Cn3cncn3)cc12.O=C(O)c1ccccc1 [RIZATRIPTAN BENZOATE] | Compound NOT metabolized |
| CCN1CCCC1CNC(=O)c1cc(S(N)(=O)=O)ccc1OC (configuration not stated) [SULPIRIDE] | Compound NOT metabolized |
| CN(CCOc1ccc(CC2SC(=O)NC2=O)cc1)c1ccccn1.O=C(O)/C=C\C(=O)O (configuration not stated) [ROSIGLITAZONE MALEATE] | Compound NOT metabolized |

Details: bacteroides stercoris, 12 h, 2 µM
Description: The drug is tested on Bacteroides stercoris strain: ATCC43183 for biotransformation. The drug concentrations were measured before and after a 12-h incubation by liquid-chromatography-coupled mass spectrometry (LC–MS)

| Compound | Bacterial Biotransformation |
| --- | --- |
| CCN1CCCC1CNC(=O)c1cc(S(N)(=O)=O)ccc1OC (configuration not stated) [SULPIRIDE] | Compound NOT metabolized |
| CN(CCOc1ccc(CC2SC(=O)NC2=O)cc1)c1ccccn1.O=C(O)/C=C\C(=O)O (configuration not stated) [ROSIGLITAZONE MALEATE] | Compound NOT metabolized |

Test: The drug is tested on Bacteroides coprophilus strain: DSM18228 for biotransformation. The drug concentrations were measured before and after a 12-h incubation by liquid-chromatography-coupled mass spectrometry (LC–MS)
Details: 2 µM

| Compound | Bacterial Biotransformation |
| --- | --- |
| CCN(CC)CCNC(C(=O)OCCC(C)C)c1ccccc1.Cl.Cl (configuration not stated) | Compound NOT metabolized |
| CN(C)CCc1c[nH]c2ccc(Cn3cncn3)cc12.O=C(O)c1ccccc1 [RIZATRIPTAN BENZOATE] | Compound metabolized |
| CN(CCOc1ccc(CC2SC(=O)NC2=O)cc1)c1ccccn1.O=C(O)/C=C\C(=O)O (configuration not stated) [ROSIGLITAZONE MALEATE] | Compound NOT metabolized |

Test: The drug is tested on Parabacteroides merdae strain: ATCC43184 for biotransformation. The drug concentrations were measured before and after a 12-h incubation by liquid-chromatography-coupled mass spectrometry (LC–MS)
Details: 2 µM

| Compound | Bacterial Biotransformation |
| --- | --- |
| CCN1CCCC1CNC(=O)c1cc(S(N)(=O)=O)ccc1OC (configuration not stated) [SULPIRIDE] | Compound NOT metabolized |
| CN(CCOc1ccc(CC2SC(=O)NC2=O)cc1)c1ccccn1.O=C(O)/C=C\C(=O)O (configuration not stated) [ROSIGLITAZONE MALEATE] | Compound NOT metabolized |

Test: The drug is tested on Bacteroides sp. WH2 strain: WH2 for biotransformation. The drug concentrations were measured before and after a 12-h incubation by liquid-chromatography-coupled mass spectrometry (LC–MS)
Details: bacteroides sp. wh2, 12 h, 2 µM

| Compound | Bacterial Biotransformation |
| --- | --- |
| CCN(CC)CCNC(C(=O)OCCC(C)C)c1ccccc1.Cl.Cl (configuration not stated) | Compound NOT metabolized |
| CN(C)CCc1c[nH]c2ccc(Cn3cncn3)cc12.O=C(O)c1ccccc1 [RIZATRIPTAN BENZOATE] | Compound NOT metabolized |
| CCN1CCCC1CNC(=O)c1cc(S(N)(=O)=O)ccc1OC (configuration not stated) [SULPIRIDE] | Compound NOT metabolized |
| CN(CCOc1ccc(CC2SC(=O)NC2=O)cc1)c1ccccn1.O=C(O)/C=C\C(=O)O (configuration not stated) [ROSIGLITAZONE MALEATE] | Compound NOT metabolized |
